Reference: ChEMBL document CHEMBL1201862, “PubChem BioAssay data set” (2004)
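Each compound was tested at five concentrations against cells in 96-well plates for 48 hours. Abbreviation: GI50, concentration required for 50% inhibition of growth.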 Active and inactive are the calls of the source. Rule as the data show it: active = GI50 up to about 1.1 µM and inactive = higher.

Legend:
Experiment in all cases: NCI tumour cell line growth inhibition, 48 h
[1] = system: A498
[2] = system: A549
[3] = system: CAKI-1
[4] = system: CCRF-CEM
[5] = system: COLO 205
[6] = system: HCC 2998
[7] = system: HT-29
[8] = system: LOX IMVI
[9] = system: MOLT-4
[10] = system: Malme-3M
[11] = system: NCI-H226
[12] = system: NCI-H23
[13] = system: RPMI-8226
[14] = system: SK-MEL-28
[15] = system: SK-OV-3
[16] = system: SNB-75
[17] = system: SW-620
[18] = system: U-251
[19] = system: UACC-257
[20] = system: UACC-62

Row | Structure (SMILES) | GI50 [1] | GI50 [2] | GI50 [3] | GI50 [4] | GI50 [5] | GI50 [6] | GI50 [7] | GI50 [8] | GI50 [9] | GI50 [10] | GI50 [11] | GI50 [12] | GI50 [13] | GI50 [14] | GI50 [15] | GI50 [16] | GI50 [17] | GI50 [18] | GI50 [19] | GI50 [20]
1 | COc1cccc(/C=C/C(=O)c2sc(C(N)=S)nc2C)c1O | > 100 µM (inactive) | > 100 µM (inactive) | > 100 µM (inactive) | 21.4 µM (inactive) | > 68.2 µM (inactive) | 75.5 µM (inactive) | > 100 µM (inactive) | 22.4 µM (inactive) | 25.1 µM (inactive) | > 100 µM (inactive) | > 100 µM (inactive) | 68.1 µM (inactive) | 20.5 µM (inactive) | > 100 µM (inactive) | > 100 µM (inactive) | > 100 µM (inactive) | 21.2 µM (inactive) | 28.8 µM (inactive) | > 100 µM (inactive) | > 100 µM (inactive)
2 | COc1ccc(/C=c2/s/c(=C(\C#N)c3nc4ccccc4[nH]3)n(-c3ccccc3)c2=O)cc1 | 24.8 µM (inactive) | 51.2 µM (inactive) | > 69.3 µM (inactive) | > 100 µM (inactive) | 36.2 µM (inactive) | > 82.8 µM (inactive) | 6.12 µM (inactive) | 36.9 µM (inactive) | 53.6 µM (inactive) | > 42.4 µM (inactive) | 16.9 µM (inactive) | 22.6 µM (inactive) | > 100 µM (inactive) | 48.2 µM (inactive) | 2.96 µM (inactive) | > 26.4 µM (inactive) | 25.2 µM (inactive) | 48.1 µM (inactive) | > 100 µM (inactive) | > 28.3 µM (inactive)
3 | CC(C)=C[C@@H]1C[C@H](C)[C@H]2CC[C@H](C)[C@H]3C(=O)C(O)=C(C)C(=O)[C@]123 | > 100 µM (inactive) | 57.8 µM (inactive) | > 100 µM (inactive) | 99.1 µM (inactive) | > 100 µM (inactive) | > 100 µM (inactive) | > 100 µM (inactive) | > 100 µM (inactive) | > 100 µM (inactive) | > 100 µM (inactive) | 87.3 µM (inactive) | > 100 µM (inactive) | > 100 µM (inactive) | > 100 µM (inactive) | > 100 µM (inactive) | > 100 µM (inactive) | > 100 µM (inactive) | > 100 µM (inactive) | > 100 µM (inactive) | > 100 µM (inactive)
4 | COc1cc(/C=C2/C(=O)NC(Cc3cc(OC)c(OC)c(C)c3OC)C(=O)N2Cc2ccccc2)c(OC)c(C)c1OC (stereo not given) | 44.4 µM (inactive) | > 100 µM (inactive) | 39.6 µM (inactive) | 39.7 µM (inactive) | 17.7 µM (inactive) | 55.1 µM (inactive) | 79.8 µM (inactive) | 70 µM (inactive) | 23 µM (inactive) | 30.8 µM (inactive) | 58.6 µM (inactive) | 79.8 µM (inactive) | 24.3 µM (inactive) | > 100 µM (inactive) | 49.2 µM (inactive) | 45.6 µM (inactive) | 80.2 µM (inactive) | 48.2 µM (inactive) | 61.5 µM (inactive) | 89.7 µM (inactive)
5 | C/C(=N\N=C(/S)N1CCCCCC1)c1cccc[n+]1[O-] | 21.6 µM (inactive) | 4.36 µM (inactive) | 6.37 µM (inactive) | 0.109 µM (active) | 0.499 µM (active) | 1.71 µM (inactive) | 0.31 µM (active) | 4.52 µM (inactive) | 0.129 µM (active) | 1.6 µM (inactive) | 7.69 µM (inactive) | 5.82 µM (inactive) | 0.116 µM (active) | 6.58 µM (inactive) | 20.8 µM (inactive) | 10.5 µM (inactive) | 1.64 µM (inactive) | 6.28 µM (inactive) | 1.33 µM (inactive) | 1.88 µM (inactive)
